# Test results published in patent EP3797781A1, “USE OF EC-7072 AND SYNERGIC COMPOSITIONS THEREOF IN TREATMENT OF CHRONIC LYMPHOCYTIC LEUKEMIA” (priority 2019, dated 2021).
# What was measured:
# T cells and NK cells = test: Intracellular staining of IFN-γ and perforin upon PMA/ionomycin stimulation; format: cell-based, human; details: 200 nM, 24 hours, PBMCs from patients with CLL (n = 4)
# Experimental: PBMCs from patients with CLL were treated with 200 nM EC-7072 or DMSO for 24 hours and stimulated with PMA (50 ng/mL) and ionomycin (1 µg/mL) for 5 hours in the presence of GolgiPlug protein transport inhibitor (Beckton Dickinson). T cells and NK cells were then analyzed for intracellular levels of IFN-γ and perforin by flow cytometry.
# The effect of EC-7072 toward healthy immune subsets, T lymphocytes and natural killer (NK) cells, which are chronically exposed to leukemia cells in the peripheral blood of patients with CLL was assessed by: • (i) incubating PBMCs isolated from patients with CLL (n = 10) following treatment with increasing concentrations of EC-7072 (0 - 400 nM) for 24 hours. Numbers of T cells (CD3^+CD56^-) (Figure 2A) and NK cells (CD3^-CD56^+) (Figure 2B) were evaluated by flow cytometry and normalized to their respective control (DMSO) condition for each individual patient to obtain percentage of relative number of T cells and NK cells, respectively; • (ii) incubating PBMCs isolated from patients with CLL (n = 6 - 10) following treatment with increasing concentrations of EC-7072 (0 - 400 nM) for 24 hours. […]
# BCL2 = BCL2 levels by intracellular flow cytometry in isolated CLL cells; format: cell-based, human; details: 200 nM, 12 and 18 hours; isolated CLL cells (n = 6)
# Experimental: The dysregulation of BCL2 expression in primary CLL by EC-7072 was evaluated by: • (i) incubating isolated CLL cells (n = 6) from patients with CLL following treatment with EC-7072 (200 nM) for 6 hours and extracting total RNA. Relative expression of BLC2 was determined by qPCR to obtain the mean relative expression to the control (DMSO) condition (Figure 6F); • (ii) incubating isolated CLL cells (n = 6) following treatment with 200 nM EC-7072 for 12 and 18 hours. BCL2 levels were evaluated by intracellular flow cytometry (Figure 6G); • (iii) incubating isolated T cells (n = 3) from patients with CLL following treatment with EC-7072 (200 nM) for 6 hours and extracting total RNA. Relative expression of BLC2 was determined by qPCR to obtain the mean relative expression to the control (DMSO) condition (Figure 6H); • (iv) incubating PBMCs (Figure 6I) and isolated T cells (Figure 6J) from patients with CLL (n = 3) following treatment with 200 nM EC-7072 for 24 hours. T-cell death and apoptosis were assessed by DiOC6(3)/PI staining to obtain percentages of viable [DiOC6(3)^+] cells and the mean percentages of apoptotic [DiOC6(3)^low PI^-] and dead [PI^+] cells.
# HK-2 cells = test: Cell death of HK-2 cells by PI staining; format: cell-based, human; details: 200 nM, 24 hours; n = 3
# Experimental: Effectiveness of EC-7072 against different B-cell malignancies was assessed by; • (i) incubating primary fibroblasts from healthy donors (n = 4) and HK-2 cells from healthy human adult kidney (n = 3) following treatment with MTA (200 nM) or EC-7072 (200 nM) for 24 hours. Cell death was evaluated by PI staining to obtain the percentages corresponding to the [PI^+] subset (Figure 5A) and the mean percentage of [PI^+] cells (Figure 5B); • (ii) treating MEC-1, GRANTA-519, Z-138, JVM-2, CA-46, Ramos, Raji and U266 cell lines (n = 3) following treatment with EC-7072 (500 nM) followed by incubation for 24 hours. Cell viability was assessed by DiOC6(3)/PI staining and normalized to control (DMSO) condition to obtain mean percentage of viable [DiOC6(3)^+] cells (Figure 5C).
# OP9 cells = test: Viability of OP9 stromal cells exposed to EC-7072; format: cell-based; details: exposure to EC-7072 for 24 hours
smiles,measurement,setting,value
"CO[C@@H]([C@@H]1Cc2cc3cc(O[C@H]4C[C@@H](O[C@H]5C[C@@H](O)[C@H](O)[C@@H](C)O5)[C@H](O)[C@@H](C)O4)c(C)c(O)c3c(O)c2C(=O)[C@H]1O[C@H]1C[C@@H](O[C@H]2C[C@@H](O[C@H]3C[C@](C)(O)[C@H](O)[C@@H](C)O3)[C@@H](O)[C@@H](C)O2)[C@H](O)[C@@H](C)O1)[C@@H](O)C(C)=O [EC-7072, mithramycin SK]",production of interferon (IFN)-γ and perforin by T cells and NK cells,T cells and NK cells,not significantly altered
same,protein levels of BCL2,BCL2,"mild, but significant, decrease"
same,viability of HK-2 cells (PI^+ cells),HK-2 cells,did not markedly affect the viability
same,viability of OP9 cells,OP9 cells,did not affect their viability
